In patent US8124634B2, “CB1 receptor modulators” (7TM Pharma A/S, priority 2006, dated 2012):

Target: T1, human CB1 receptor (Homo sapiens, UniProt P21554)
T1 construct: expressed in transfected cells; membranes
Assay: Cannabinoid Receptor-1 functional assay: inhibition of CP55940-induced [35S]GTPγS binding to membranes of CHO-K1 cells expressing human CB1
Format: biochemical
Conditions: 3 nM CP55940, hCB1 membranes, [35S]GTPγS SPA; read-out: IC50 value for antagonizing a CB1 receptor agonist
Source text: Transfection and Cell Culture—The cDNA encoding the human CB1 (Cannabinoid Receptor-1) receptor (GenBank accession number NM_016083) was cloned from a human adipose tissue cDNA library and cloned into the eukaryotic expression vector pcDNA3.1 (Invitrogen).
Chinese Hamster Ovary cells (CHO-K1) stably expressing recombinant human CB1 were generated by transfecting the plasmid containing the coding sequence of the human CB1 receptor in CHO-K1 cells, using lipofectamin, according to the manufacturer instructions. Resistant clones were selected in the presence of 600 μg/ml G418 (Life technology). Stably transfected CHO-K1 cells were maintained in Ham's F-12 culture medium (Invitrogen), supplemented with 10% fetal calf serum (Invitrogen), 100 U/ml penicillin, 100 μg/ml streptomycin (Life Technology), and 600 μg/ml G418.
Cannabinoid Receptor-1 Functional Assay.
Functional activities of the above examples of compounds of the invention were assessed in vitro by measuring their ability to inhibit CP55940-induced [^35S]GTPγS binding to membranes prepared from CHO-K1 cells expressing the human CB1 receptor (described in Transfection and Cell Culture). CP55940 is a well known non-selective CB1 and CB2 receptor agonist (e.g Felder et al., 1995, Molecular Pharmacology, (48) 443-50). Membranes were prepared by a standard procedure. Briefly, cells were harvested using 10 mM EDTA and collected by centrifugation. Pelleted cells were homogenized in ice-cold 20 mM Hepes (pH 7.4),10 mM EDTA and protease inhibitors (Complete protease inhibitor cocktail tablet, Roche) using an Ultra Turrax Homogenizer. The homogenate was centrifuged at 14 000 rpm for 45 min. at 4° C. The resultant pellet was resuspended in the same buffer but with only 0.1 mM EDTA and was again centrifuged at 14 000 rpm for 45 min. at 4° C. The resulting pellet (membranes) was resuspended in 20 mM Hepes (pH 7.4), 0.1 mM EDTA, 2 mM MgCl2 and protease inhibitors and protein concentration was determined by Micro BCA Protein Assay Reagent Kit (Pierce Biotechnology) according to the manufacturer instructions. The [^35S]GYPγS SPA (Scintillation Proximity Assay) binding assay was performed by incubating 5 μg/well hCB1-membranes with 1 nM [^35S]GYPγS (Perkin Elmer—NEG 030H) in the presence of 3 nM of CP55940 and various concentrations of the test compounds at room temperature for 1 hr in 96-well microtiter plates. 0.4 mg/well SPA beads (PVT-WGA; RPNQ0001 Amersham Pharmacia Biotech) were then added and the incubation continued for further 30 min. on an orbital shaker. The assay buffer contained 50 mM HEPES (pH 7.5), 50 mM NaCl, 2.5 mM MgCl2, 0.1% BSA, 1 μM GDP and 100 μg/ml Saponin. Microtiter plates were centrifuged at 1500 rpm for 5 min. and radioactivity was read immediately using a Topcounter (PerkinElmer Life Sciences). Data were analyzed and IC50 values determined by non-linear regression using the Prism software (GraphPad Software, San Diego).

T1 sequence (P21554 whole entry): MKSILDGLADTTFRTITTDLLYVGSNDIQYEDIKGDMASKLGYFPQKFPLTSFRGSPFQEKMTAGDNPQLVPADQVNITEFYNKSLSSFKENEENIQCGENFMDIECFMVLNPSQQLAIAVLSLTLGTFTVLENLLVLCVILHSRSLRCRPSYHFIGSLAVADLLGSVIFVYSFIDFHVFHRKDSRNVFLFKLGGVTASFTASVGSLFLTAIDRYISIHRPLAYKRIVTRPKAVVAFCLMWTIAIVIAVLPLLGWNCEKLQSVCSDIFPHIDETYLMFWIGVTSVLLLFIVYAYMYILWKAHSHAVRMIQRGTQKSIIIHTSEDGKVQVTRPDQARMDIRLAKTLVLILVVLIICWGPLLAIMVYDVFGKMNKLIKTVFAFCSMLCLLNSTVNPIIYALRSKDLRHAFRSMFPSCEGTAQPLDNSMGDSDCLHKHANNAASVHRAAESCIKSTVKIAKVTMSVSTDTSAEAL

Row | Compound | IC50
1 | CC(NC(=O)c1nn(-c2ccccc2Cl)c(-c2ccc(Cl)cc2)c1Cc1nn[nH]n1)c1ccc(Cl)c(F)c1 (stereo not shown) [[2.19], 5-(4-Chloro-phenyl)-1-(2-chloro-phenyl)-4-(2H-tetrazol-5-ylmethyl)-1H-pyrazole-3-carboxylic acid [1-(4-chloro-3-fluoro-phenyl)-ethyl]-amide] | < 0.3 µM
2 | CC(NC(=O)c1nn(-c2ccccc2Cl)c(-c2ccc(Cl)cc2)c1Cc1nn[nH]n1)c1ccc(Br)cc1F (stereo not shown) [[2.20], 1-(2-Chloro-phenyl)-5-(4-chloro-phenyl)-4-(2H-tetrazol-5-ylmethyl)-1H-pyrazole-3-carboxylic acid [1-(4-bromo-2-fluoro-phenyl)-ethyl]-amide] | < 0.3 µM
3 | C[C@@H](NC(=O)c1nn(-c2ccccc2Cl)c(-c2ccc(Cl)cc2)c1Cc1nn[nH]n1)c1ccc(Cl)c(Cl)c1 [[2.22], 1-(2-Chloro-phenyl)-5-(4-chloro-phenyl)-4-(2H-tetrazol-5-ylmethyl)-1H-pyrazole-3-carboxylic acid [(R)-1-(3,4-dichloro-phenyl)-ethyl]-amide] | < 0.3 µM
4 | C[C@@H](NC(=O)c1nn(-c2ccccc2Cl)c(-c2ccc(Cl)cc2)c1Cc1nn[nH]n1)c1ccc(Cl)c(F)c1 [[2.23], 1-(2-Chloro-phenyl)-5-(4-chloro-phenyl)-4-(2H-tetrazol-5-ylmethyl)-1H-pyrazole-3-carboxylic acid [(R)-1-(3-fluoro-4-chloro-phenyl)-ethyl]-amide] | < 0.3 µM
5 | C[C@@H](NC(=O)c1nn(-c2ccccc2Cl)c(-c2ccc(Cl)cc2)c1Cc1nn[nH]n1)c1ccc(F)c(Cl)c1 [[2.24], 1-(2-Chloro-phenyl)-5-(4-chloro-phenyl)-4-(2H-tetrazol-5-ylmethyl)-1H-pyrazole-3-carboxylic acid [(R)-1-(3-chloro-4-fluoro-phenyl)-ethyl]-amide] | < 0.3 µM
6 | C[C@@H](NC(=O)c1nn(-c2ccccc2Cl)c(-c2ccc(Cl)cc2)c1Cc1nnn[nH]1)c1cccc(Cl)c1 [[2.25], 1-(2-Chloro-phenyl)-5-(4-chloro-phenyl)-4-(1H-tetrazol-5-ylmethyl)-1H-pyrazole-3-carboxylic acid [(R)-1-(3-chloro-phenyl)-ethyl]-amide] | < 0.3 µM
7 | C[C@@H](NC(=O)c1nn(-c2ccccc2Cl)c(-c2ccc(Cl)cc2)c1Cc1nn[nH]n1)c1ccc(OC(F)(F)F)cc1 [[2.26], 1-(2-Chloro-phenyl)-5-(4-chloro-phenyl)-4-(2H-tetrazol-5-ylmethyl)-1H-pyrazole-3-carboxylic acid [(R)-1-(4-trifluoromethoxyl-phenyl)-ethyl]-amide] | < 0.3 µM
8 | C[C@H](c1ccc(OC(F)(F)F)cc1)N(C)C(=O)c1nn(-c2ccccc2Cl)c(-c2ccc(Cl)cc2)c1Cc1nnn[nH]1 [[2.27], 1-(2-Chloro-phenyl)-5-(4-chloro-phenyl)-4-(1H-tetrazol-5-ylmethyl)-1H-pyrazole-3-carboxylic acid methyl-[(R)-1-(4-trifluoromethoxy-phenyl)-ethyl]-amide] | < 0.3 µM
9 | C[C@H](c1ccc(F)c(Cl)c1)N(C)C(=O)c1nn(-c2ccccc2Cl)c(-c2ccc(Cl)cc2)c1Cc1nnn[nH]1 [[2.28], 1-(2-Chloro-phenyl)-5-(4-chloro-phenyl)-4-(1H-tetrazol-5-ylmethyl)-1H-pyrazole-3-carboxylic acid methyl-[(R)-1-(3-chloro-4-fluoro-phenyl)-ethyl]-amide] | < 0.3 µM

Next, values leading:

Row | IC50 | Compound
10 | < 0.3 µM | C[C@@H](NC(=O)c1nn(-c2ccccc2Cl)c(-c2ccc(Cl)cc2)c1Cc1nnn[nH]1)c1cccc(C(F)(F)F)c1 [[2.12], 1-(2-Chloro-phenyl)-5-(4-chloro-phenyl)-4-(1H-tetrazol-5-ylmethyl)-1H-pyrazole-3-carboxylic acid [(R)-1-(3-trifluoromethyl-phenyl)-ethyl]-amide]
11 | < 0.3 µM | CC(NC(=O)c1nn(-c2ccccc2Cl)c(-c2ccc(Cl)cc2)c1Cc1nnn[nH]1)c1ccc(Cl)c(Cl)c1 (stereo not shown) [[2.13], 1-(2-Chloro-phenyl)-5-(4-chloro-phenyl)-4-(1H-tetrazol-5-ylmethyl)-1H-pyrazole-3-carboxylic acid [1-(3,4-dichloro-phenyl)-ethyl]-amide]
12 | < 0.3 µM | C[C@H](c1ccc(C(F)(F)F)cc1)N(C)C(=O)c1nn(-c2ccccc2Cl)c(-c2ccc(Cl)cc2)c1Cc1nnn[nH]1 [[2.14], 1-(2-Chloro-phenyl)-5-(4-chloro-phenyl)-4-(1H-tetrazol-5-ylmethyl)-1H-pyrazole-3-carboxylic acid methyl-[(R)-1-(4-trifluoromethyl-phenyl)-ethyl]-amide]
13 | < 0.3 µM | CCC(NC(=O)c1nn(-c2ccccc2Cl)c(-c2ccc(Cl)cc2)c1Cc1nnn[nH]1)c1ccc(C(F)(F)F)cc1 (stereo not shown) [[2.15], 1-(2-Chloro-phenyl)-5-(4-chloro-phenyl)-4-(1H-tetrazol-5-ylmethyl)-1H-pyrazole-3-carboxylic acid [1-(4-trifluoromethyl-phenyl)propyl]-amide]
14 | < 0.3 µM | CC(NC(=O)c1nn(-c2ccccc2Cl)c(-c2ccc(Cl)cc2)c1Cc1nnn[nH]1)c1ccc(F)c(F)c1 (stereo not shown) [[2.16], 1-(2-Chloro-phenyl)-5-(4-chloro-phenyl)-4-(1H-tetrazol-5-ylmethyl)-1H-pyrazole-3-carboxylic acid [1-(3,4-difluoro-phenyl)-ethyl]-amide]
15 | < 0.3 µM | C[C@@H](NC(=O)c1nn(-c2ccccc2Cl)c(-c2ccc(Cl)cc2)c1Cc1nnn[nH]1)c1cccc(F)c1 [[2.17], 1-(2-Chloro-phenyl)-5-(4-chloro-phenyl)-4-(1H-tetrazol-5-ylmethyl)-1H-pyrazole-3-carboxylic acid [(R)-1-(3-fluoro-phenyl)-ethyl]-amide]
16 | < 0.3 µM | CC(NC(=O)c1nn(-c2ccccc2Cl)c(-c2ccc(Cl)cc2)c1Cc1nnn[nH]1)c1cc(F)cc(F)c1 (stereo not shown) [[2.18], 1-(2-Chloro-phenyl)-5-(4-chloro-phenyl)-4-(1H-tetrazol-5-ylmethyl)-1H-pyrazole-3-carboxylic acid [1-(3,5-difluoro-phenyl)-ethyl]-amide]
